Source: US11932870B2, “Compositions and methods for immune cell modulation in adoptive immunotherapies” (Fate Therapeutics, Inc., priority 2016, dated 2024)

Tested on: CD8 CAR-T cells
Assay: Exhaustion marker expression (PD-1, Tim-3) on CD8 CAR-T cells
Format: cell-based, human
Description: Culturing cells in large-scale for phenotypic and exhaustion marker evaluation. Isolated CD8 T cells were activated in bulk on day 0 using anti-CD3/anti-CD28 beads in T cell media supplemented with IL-2. On day 1, cells were transduced with the CAR Construct and cell density was adjusted to 0.5×10^6/ml and 10^6 cells were seeded into 12-well plates in the presence of vehicle, TWS119, or DCC-2036. On day 4, cells were transferred into 6-well plates and 2 ml of T cell media was added to each well. On day 6 another 2 ml of media was added to each well. On day 8, CAR T cells were analyzed on a flow cytometer for surface expression of phenotypic markers (CD62L, CCR7, and CD27) and exhaustion markers (PD-1 and Tim-3).
To determine the effect of compound treatment of CAR-T cells on exhaustion marker expression, cells from three different donors were prepared and treated as described in the protocol above. PD-1 and Tim-3 expression was determined using flow cytometry. […] Tim-3 expression was reduced 2-fold with TWS119, and 3.7-fold with DCC-2036 treatment (FIG. 6A).

SMILES: CNC(=O)c1cc(Oc2ccc(NC(=O)Nc3cc(C(C)(C)C)nn3-c3ccc4ncccc4c3)c(F)c2)ccn1 [DCC-2036, Rebastinib]
- expression of T cell exhaustion marker Tim-3 (CD8 T cells at one week post activation, relative to DMSO, FIG. 6A): reduced expression
- expression of T cell exhaustion marker PD-1 (CD8 T cells at one week post activation, relative to DMSO, FIG. 6B): reduced expression
- reduction of Tim-3 expression (relative to vehicle, three donors, FIG. 6A): 3.7 fold
- decrease in PD-1 surface expression (relative to vehicle, three donors, FIG. 6B): 4.5 fold
